Where two headings read alike, the source gives them in different places.
Key:
[1] = target: T1, interaction between GMPPNP-bound recombinant K-Ras4B G12C mutant protein and cRAF RAS-binding domain (cRAF-RBD) (Homo sapiens, UniProt P01116, G12C); experiment: Inhibitory activity on interaction between KRAS G12C and cRAF (Alpha technology)
T1 construct: His-tag (N)
How it was run: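 Alpha signal measured 1.5 h after adding cRAF-RBD (aa 50-132) and detection reagents to GMPPNP-bound KRAS G12C (aa 1-169) pretreated 1 h at 25° C with compound (pH 7.5 buffer). 0% inhibition = DMSO, 100% = GDP-loaded KRAS; IC50 by curve fit.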

MIA PaCa-2 cells = experiment: Growth inhibition activity on KRAS-G12C mutant cell line (CellTiter-Glo 3D); assay type: cell-based, human; conditions: MIA PaCa-2, 3-day culture with compound
How it was run: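 IC50 (nM) derived from inhibition of luminescence (CellTiter-Glo 3D) relative to compound-free wells. Cells were seeded in U-bottom plates, grown 1 day, then exposed to compound for 3 days at 37 °C with 0.2% final DMSO.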

[2] = GMPPNP-bound KRAS G12C incubated with compound 25° C. 1 hour, Table 2-1, read-out: IC50
[3] = Homo sapiens, MIA PaCa-2, 72 h, Table 3-1
[4] = IC50, GMPPNP-bound KRAS G12C incubated with compound 25° C. 1 hour, Table 2
[5] = IC50, GMPPNP-bound KRAS G12C incubated with compound 25° C. 1 hour, Table 2-1
[6] = Homo sapiens, MIA PaCa-2, 72 h, Table 3

T1 sequence (P01116 with tags, fused parts or gaps isoform P01116-2 G12C): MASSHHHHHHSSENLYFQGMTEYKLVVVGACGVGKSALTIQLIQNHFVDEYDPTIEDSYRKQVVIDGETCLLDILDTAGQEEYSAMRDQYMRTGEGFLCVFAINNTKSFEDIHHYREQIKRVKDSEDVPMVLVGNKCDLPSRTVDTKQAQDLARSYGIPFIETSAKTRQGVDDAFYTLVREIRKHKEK

Compound	IC50 [1, 2]	IC50 (MIA PaCa-2 cells; [3])	also measured
COCCn1c(C)nc2c3c(c(OC)cc21)-c1cccn2c(C(=O)c4cc(F)c(NC(=O)/C=C/CNC5(C)CC5)c(F)c4)cc(c12)CCN3C (single isomer, unassigned) [Example 200, (E)-N-(2,6-difluoro-4-(7-methoxy-9-(2-methoxyethyl)-10,12-dimethyl-9,12,13,14-tetrahydroimidazo[4″,5″:5′,6′]benzo[1′,2′:2,3]azocino[4,5,6-hi]indolizine-2-carbonyl)phenyl)-4-((1-methylcyclopropyl)amino)but-2-enamide]	13.7 nM	4.62 nM	
C[C@H](O)[C@@H]1CCCN1C/C=C/C(=O)Nc1c(F)cc(C(=O)c2cc3c4c(cccn24)-c2c(C(F)(F)F)cc4c(ncn4C)c2N(C)CC3)cc1F [Example 219, (E)-N-(4-(9,12-dimethyl-7-(trifluoromethyl)-9,12,13,14-tetrahydro-imidazo[4″,5″:5′,6′]benzo-[1′,2′:2,3]azocino[4,5,6-hi]indolizine-2-carbonyl)-2,6-difluorophenyl)-4-((S)-2-((S)-1-hydroxy-ethyl)pyrrolidin-1-yl)but-2-enamide]	38.5 nM	12.6 nM	
Cn1cnc2c3c(c(C(F)(F)F)cc21)-c1cccn2c(C(=O)c4cc(F)c(NC(=O)/C=C/CN5CC6CC5CCO6)c(F)c4)cc(c12)CCO3 (centres unmarked) [Example 229, (E)-4-(2-oxa-6-azabicyclo-[3.2.1]octan-6-yl)-N-(2,6-difluoro-4-(9-methyl-7-(trifluoromethyl)-13,14-dihydro-9H-imidazo-[4″,5″:5′,6′]benzo[1′,2′: 2,3]oxocino[4,5,6-hi]-indolizine-2-carbonyl)-phenyl)but-2-enamide]	12.7 nM	11.3 nM	
CN1CCc2cc(C(=O)c3cc(F)c(NC(=O)/C=C/CNC4(C)COC4)c(F)c3)n3cccc(c23)-c2c(C(F)(F)F)cc3c(ncn3C3CC3)c21 (single isomer, unassigned) [Example 153, (E)-N-(4-(9-cyclopropyl-12-methyl-7-(trifluoro-methyl)-9,12,13,14-tetra-hydroimidazo[4″,5″:5′,6′]-benzo[1′,2′:2,3]azocino-[4,5,6-hi]indolizine-2-carbonyl)-2,6-difluoro-phenyl)-4-((3-methyloxe-tan-3-yl)amino)but-2-enamide]	31.5 nM	118 nM	
CO[C@H]1CC[C@H](NC/C=C/C(=O)Nc2c(F)cc(C(=O)c3cn4c5c(cccc35)-c3c(cccc3C(F)(F)F)OCC4)cc2F)CC1 (single isomer, unassigned) [Example 11-2]			IC50 [1, 4]: 77 nM; IC50 (MIA PaCa-2 cells; Table 3): 91 nM
Cc1nc2c3c(c(C(F)(F)F)cc2n1C)-c1cccc2c(C(=O)c4cc(F)c(NC(=O)/C=C/CN[C@H]5CCOC5)c(F)c4)cn(c12)CCN3C (single isomer, unassigned) [Example 87]		3.27 nM	IC50 [1, 5]: 18.2 nM
CN1CCc2cc(C(=O)c3cc(F)c(NC(=O)/C=C/CNCC(C)(C)CO)c(F)c3)n3cccc(c23)-c2c(C(F)(F)F)cc3c(ncn3C)c21 [Example 113, (E)-N-(4-(9,12-dimethyl-7-(trifluoromethyl)-9,12,13,14-tetrahydro-imidazo[4″,5″:5′,6′]benzo-[1′,2′:2,3]azocino[4,5,6-hi]indolizine-2-carbonyl)-2,6-difluorophenyl)-4-((3-hydroxy-2,2-dimethyl-propyl)amino)but-2-enamide]	29.6 nM	10.6 nM	
COCCn1c(C)nc2c3c(c(OC)cc21)-c1cccn2c(C(=O)c4cc(F)c(NC(=O)C=CCNC5(C)CC5)c(F)c4)cc(c12)CCS3 [Example 240, (E)-N-(2,6-difluoro-4-(7-methoxy-9-(2-methoxyethyl)-10-methyl-13,14-dihydro-9H-imidazo[4″,5″:5′,6′]benzo[1′,2′:2,3]thiocino[4,5,6-hi]indolizine-2-carbonyl)phenyl)-4-((1-methylcyclopropyl)amino)but-2-enamide]	8.93 nM	14.5 nM	
CO[C@H]1CC[C@H](NC/C=C/C(=O)Nc2c(F)cc(C(=O)c3cn4c5c(cccc35)-c3c(C)cc5c(nc(C)n5C)c3OCC(F)(F)C4)cc2F)CC1 [Example 26, (E)-N-(4-(13,13-difluoro-6,8,9-trimethyl-13,14-dihydro-8H,12H-imidazo[4″,5″:3′,4′]benzol[1′,2′:8,9][1,5]oxazonino[7,6,5-hi]indole-2-carbonyl)-2,6-difluorophenyl)-4-(((1r,4r)-4-methoxycyclohexyl)amino)but-2-enamide]			IC50 [1, 4]: 100 nM; IC50 (MIA PaCa-2 cells; [6]): 130 nM
CO[C@H]1CC[C@H](NC/C=C/C(=O)Nc2c(F)cc(C(=O)c3cn4c5c(cccc35)-c3c(C)cc5c(nc(C)n5C)c3OC[C@H](C)C4)cc2F)CC1 (single isomer, unassigned) [Example 23]			IC50 [1, 4]: 19 nM; IC50 (MIA PaCa-2 cells; Table 3): 13 nM
Cc1nc2c3c(c(C(F)(F)F)cc2n1C)-c1cccn2c(C(=O)c4cc(F)c(NC(=O)/C=C/CNC5(C)CC5)c(F)c4)cc(c12)CCO3 [Example 35]			IC50 ([1]; GMPPNP-bound KRAS G12C incubated with compound 25° C. 1 hour, Table 2, read-out: IC50): 13 nM; IC50 (MIA PaCa-2 cells; [6]): 14 nM
Cn1cnc2c3c(c(C(F)(F)F)cc21)-c1cccn2c(C(=O)c4cc(F)c(NC(=O)/C=C/CN5CCCC5)c(F)c4)cc(c12)CCO3 [Example 149, (E)-N-(2,6-difluoro-4-(9-methyl-7-(trifluorometh-yl)-13,14-dihydro-9H-imidazo[4″,5″:5′,6′]benzo-[1′,2′:2,3]oxocino[4,5,6-hi]indolizine-2-carbonyl)-phenyl)-4-(pyrrolidin-1-yl)but-2-enamide]	23.7 nM	23.4 nM	
CO[C@H]1CC[C@H](NC/C=C/C(=O)Nc2ccc(C(=O)c3cc4c5c(cccn35)-c3c(C(F)(F)F)cc5c(nc(C)n5C)c3OCC4)nc2)CC1 [Example 59, (E)-N-(6-(9,10-dimethyl-7-(trifluoromethyl)-13,14-dihydro-9H-imidazo-[4″,5″:5′,6′]benzo[1′,2′: 2,3]oxocino[4,5,6-hi]-indolizine-2-carbonyl)-pyridin-3-yl)-4-(((1r,4r)-4-methoxycyclohexyl)-amino)but-2-enamide]	27.6 nM	19.8 nM	
CN1CCc2cc(C(=O)c3cc(F)c(NC(=O)/C=C/CNCCO)c(F)c3)n3cccc(c23)-c2c(C(F)(F)F)cc3c(ncn3C)c21 [Example 96, (E)-N-(4-(9,12-dimethyl-7-(trifluoromethyl)-9,12,13,14-tetrahydro-imidazo[4″,5″:5′,6′]benzo-[1′,2′:2,3]azocino[4,5,6-hi]indolizine-2-carbonyl)-2,6-difluorophenyl)-4-((2-hydroxyethyl)amino)but-2-enamide]	30.6 nM	14.5 nM	
Cc1nnc2c3c(c(C(F)(F)F)cn12)-c1cccn2c(C(=O)c4cc(F)c(NC(=O)/C=C/CNC5(C)COC5)c(F)c4)cc(c12)CCN3C (single isomer, unassigned) [Example 216, (E)-N-(4-(10,13-dimethyl-7-(trifluoromethyl)-14,15-dihydro-13H-[1,2,4]-triazolo[4″,3″:1′,2′]pyrido-[3′,4′:2,3]azocino[4,5,6-hi]indolizine-2-carbonyl)-2,6-difluorophenyl)-4-((3-methyloxetan-3-yl)-amino)but-2-enamide]	57.6 nM	23.3 nM	
COCc1nc2c3c(c(OC)cc2n1C)-c1cccn2c(C(=O)c4cc(F)c(NC(=O)/C=C/CNC5(C)CC5)c(F)c4)cc(c12)CCN3C [Example 174, (E)-N-(2,6-difluoro-4-(7-methoxy-10-(methoxymethyl)-9,12-dimethyl-9,12,13,14-tetrahydroimidazo[4″,5″:5′,6′]benzo[1′,2′:2,3]azocino[4,5,6-hi]indolizine-2-carbonyl)phenyl)-4-((1-methylcyclopropyl)amino)but-2-enamide]	7.41 nM	7.45 nM	
CO[C@H]1CC[C@H](NC/C=C/C(=O)Nc2c(F)cc(C(=O)c3cn4c5c(cccc35)-c3c(C(F)(F)F)cc5c(nc(C)n5C)c3N(C)C(=O)C4)cc2F)CC1 [Example 76, (E)-N-(2,6-difluoro-4-(8,9,11-trimethyl-12-oxo-6-(trifluoromethyl)-8,11,12,13-tetrahydro-imidazo[4″,5″:5′,6′]benzo-[1′,2′:5,6][1,4]diazocino-[7,8,1-hi]indole-2-carbon-yl)phenyl)-4-(((1r,4r)-4-methoxycyclohexyl)-amino)but-2-enamide]		7.14 nM	IC50 [1, 5]: 22.2 nM
CN1CCc2cc(C(=O)c3cc(F)c(NC(=O)/C=C/CN4CC[C@H]4CO)c(F)c3)n3cccc(c23)-c2c(C(F)(F)F)cc3c(ncn3C)c21 (single isomer, unassigned) [Example 199]	10.1 nM	3.67 nM	
CC1Cc2cc(C(=O)c3cc(F)c(NC(=O)/C=C/CNC4(C)COC4)c(F)c3)n3cccc(c23)-c2c(C(F)(F)F)cc3c(ncn3C)c2O1 (single isomer, unassigned) [Example 130-2, (E)-N-(4-(9,13-dimethyl-7-(trifluoromethyl)-13,14-dihydro-9H-imidazo[4″,5″:5′,6′]benzo[1′,2′:2,3]oxocino[4,5,6-hi]indolizine-2-carbonyl)-2,6-difluorophenyl)-4-((3-methyloxetan-3-yl)amino)but-2-enamide]	3760 nM		IC50 (MIA PaCa-2 cells; Table 3-1): 3410 nM

From US20240262842A1, “SMALL MOLECULE INHIBITORS OF KRAS G12C MUTANT” (Merck Sharp & Dohme LLC, priority 2021, published 2024)
